Read-outs that look alike come from different tables or passages of the source.
Legend:
C. albicans = experiment: Agar diffusion assay, C. albicans; type: cell-based, Candida albicans; conditions: for zone of inhibition at 20 µM: Candida albicans, read-out: C. albicans ZID (inhibition zone diameter); for C. albicans IA% (activity index): ratio of inhibition zone of compound to that of positive control (clotrimazole)
MCF-7 cells = experiment: MTT antiproliferative assay, MCF-7 cells; type: cell-based; conditions: for IC50: Homo sapiens, MCF7, 24 h, read-out: MCF7 IC50; for MCF7 TI (therapeutic index): ratio of IC50 against WI38 cells to IC50 against MCF-7 cells
Source text: (§1) Recently, OSe agents have attracted interest due to their potential chemoprotective and antitumor properties. […] Therefore, we estimated the OSe agents’ antiproliferative activities against different cancer cells, i.e., MCF-7 and HepG2 cells and healthy lung fibroblast WI-38 cells, using the MTT assay. The drug doxorubicin was employed as the standard. The corresponding therapeutic indices (TI) are described as the proportion of the WI38 cells IC50 to the IC50 of the cancer cell (e.g., MCF-7 and HepG2) (Table 1).
(§2) The products’ anticancer activity was examined using the MTT assay against breast (MCF-7) carcinoma cells, liver (HepG2), and normal WI-38 cells, following the previously reported method. Experimental details can be found in the Supplementary Materials.
(§3) 1.1. The biological assays
(§4) 1.1.1. The anticancer activity
(§5) The breast adenocarcinoma (MCF-7), Hepatocellular carcinoma (HEPG-2), and normal fibroblast (WI-38) cells were obtained from ATCC via Holding company for biological products and vaccines (VACSERA), Cairo, Egypt. The reagents […] medium, MTT, DMSO, and fetal bovine serum was obtained from Sigma Aldrich. Dulbecco’s modified Eagle’s medium was used as the culture medium for the cells, and the cytotoxicity was evaluated using the reported MTT assay. Doxorubicin was used as the positive reference, and the IC50 values were obtained from the corresponding dose-response curve.
(§6) This colorimetric assay is based on converting the yellow tetrazolium bromide (MTT) to a purple formazan derivative by mitochondrial succinate dehydrogenase in viable cells. Cell lines were cultured in […] medium with 10% fetal bovine serum. Antibiotics added were 100 units/ml penicillin and 100µg/ml streptomycin at 37 C in a 5% Co2 incubator. The cell lines were seeded in a 96-well plate at a density of 1.0x10^4 cells/well. at 37 C for 48 h under 5% Co2. After incubation, the cells were treated with different concentrations of compounds and incubated for 13 […]
(§7) Finally, dimethyl sulfoxide (DMSO) in the volume of 100 µl is added to each well to dissolve the purple formazan formed. The colorimetric assay is measured and recorded at an absorbance of 570 […]
(§8) The percentage of the relative cell viability was calculated as (A570 of treated samples/A570 of the untreated sample) X 100. […]

S. aureus [1] = experiment: Agar diffusion assay, S. aureus; type: cell-based, Staphylococcus aureus; design: concentration or dose not given beside the values; conditions: ratio of inhibition zone of compound to that of positive control (ampicillin)
Source text: (§9) The encouraging antitumor properties of the OSe compounds motivated us to evaluate their corresponding antimicrobial activities against the C. albicans fungal strain, S. aureus Gram-positive bacteria, and E. coli Gram-negative bacteria. Therefore, we applied the agar diffusion and minimum inhibitory concentration (MIC) methods using clotrimazole antifungal and ampicillin antibacterial drugs as standards.
The products’ antimicrobial properties were examined according to the previously reported method, via agar well diffusion assay against E. coli, S. aureus, and C. albicans. A microdilution method was also used to record MICs (M), following the previously reported procedure. Experimental details can be found in the Supplementary Materials. […]
(§10) 1.1.2. The antimicrobial activity
The antimicrobial activities of the OSe compounds were evaluate d against C. albicans yeast as well as E. coli gram-negative and S. aureus gram-positive bacteria employing the agar well diffusion assay.
Briefly, a concentration of 1 mM was prepared for each compound by dissolving in DMSO. Paper discs of standard size […] were sterilized in an autoclave and soaked in 9 µL of the test compounds, and placed in the Petri dishes, which in turn contain a nutrient media (agar 9 g, peptone 5 g, and beef extract 3 g) seeded with the dedicated strain. Incubation lasted for 13 h at 36 0C.
Experiments were replicated three times and the antifungal clotrimazole and antibiotic ampicillin […]

E. coli = experiment: Agar diffusion assay, E. coli; type: cell-based, Escherichia coli; conditions: for E. coli ZID (inhibition zone diameter): 6-mm disks soaked with 20 μM of the OSe agents; for E. coli IA% (activity index): ratio of inhibition zone of compound to that of positive control (ampicillin)
Source text: as §9
The products’ antimicrobial properties were examined according to the previously reported method, via agar well diffusion assay against E. coli, S. aureus, and C. albicans. A microdilution method was also used to record MICs (M), following the previously reported procedure. Experimental details can be found in the Supplementary Materials.
1.1. […]
as §10
The antimicrobial activities of the OSe compounds were evaluate d against C. albicans yeast as well as E.
coli gram-negative and S. aureus gram-positive bacteria employing the agar well diffusion assay. […]
5 g, and beef extract 3 g) seeded with the dedicated strain. Incubation lasted for 13 h at 36 0C.
Experiments were replicated three times and the antifungal clotrimazole and antibiotic ampicillin
1.1.3. […]

WI-38 cells = experiment: MTT cytotoxicity assay, normal lung fibroblast WI-38 cells; type: cell-based; conditions: Homo sapiens, WI-38, 24 h, read-out: WI38 IC50
Source text: as §1, §2, §3, §4, §5, §6, §7, §8

HepG2 cells = experiment: MTT antiproliferative assay, HepG2 cells; type: cell-based; conditions: for IC50: Homo sapiens, read-out: HepG2 IC50; for HepG2 TI (therapeutic index): ratio of IC50 against WI38 cells to IC50 against HepG2 cells
Source text: Recently, OSe agents have attracted interest due to their potential chemoprotective and antitumor properties. We have developed several OSe compounds with promising antioxidant, antimicrobial, and antitumor properties. Therefore, we estimated the OSe agents’ antiproliferative activities against different cancer cells, i.e., MCF-7 and HepG2 cells and healthy lung fibroblast WI-38 cells, using the MTT assay. The drug doxorubicin was employed as the standard. The corresponding therapeutic indices (TI) are described as the proportion of the WI38 cells IC50 to the IC50 of the cancer cell (e.g., MCF-7 and HepG2) (Table 1).
as §2, §3, §4, §5, §6
Finally, dimethyl sulfoxide (DMSO) in the volume of 100 µl is added to each well to dissolve the purple formazan formed. The colorimetric assay is measured and recorded at an absorbance of 570 nm using a plate reader (EXL 800, USA). The percentage of the relative cell viability was calculated as (A570 of treated samples/A570 of the untreated sample) X 100. […]

S. aureus [2] = experiment: Agar diffusion assay, S. aureus; type: cell-based; conditions: Staphylococcus aureus; 6-mm disks soaked with 20 μM of the OSe agents; read-out: S. aureus ZID (inhibition zone diameter)

## CCOC(=O)C(C#N)=NNc1ccc([Se]CC(=O)NOCc2ccccc2)cc1 [Compound 15, Ethyl 2-(2-(4-((2-((benzyloxy)amino)-2-oxoethyl)selanyl)phenyl)hydrazineylidene)-2-cyanoacetate]
C. albicans
  zone of inhibition at 20 µM: 20 mm
  C. albicans IA% (activity index): 83.3%
MCF-7 cells
  IC50: 21.6 ± 1.6 µM
  MCF7 TI (therapeutic index): 3.8
S. aureus [1]
  S. aureus IA% (activity index): 71.4%
E. coli
  E. coli ZID (inhibition zone diameter): 12 mm
  E. coli IA% (activity index): 52.2%
WI-38 cells
  IC50: 82 ± 4.6 µM
HepG2 cells; HepG2, 24 h
  IC50: 15.8 ± 1.3 µM
HepG2 cells
  HepG2 TI (therapeutic index): 5.2
S. aureus [2]
  zone of inhibition at 20 µM: 15 mm

## O=C(C[Se]c1ccc(NC(=O)CCl)cc1)NOCc1ccccc1 [Compound 14, N-(benzyloxy)-2-((4-(2-chloroacetamido)phenyl)selanyl)acetamide]
C. albicans
  zone of inhibition at 20 µM: 4 mm
  C. albicans IA% (activity index): 16.7%
MCF-7 cells
  IC50: 87.4 ± 4.1 µM
  MCF7 TI (therapeutic index): 1.1
WI-38 cells
  IC50: > 100 µM
HepG2 cells; HepG2, 24 h
  IC50: > 100 µM

## CC(=O)Nc1ccc([Se]CC(=O)NOCc2ccccc2)cc1 [Compound 9, 2-((4-Acetamidophenyl)selanyl)-N-(benzyloxy)acetamide]
C. albicans
  zone of inhibition at 20 µM: 9 mm
  C. albicans IA% (activity index): 37.5%
MCF-7 cells
  IC50: 45.6 ± 2.9 µM
  MCF7 TI (therapeutic index): 1.9
S. aureus [1]
  S. aureus IA% (activity index): 33.3%
E. coli
  E. coli ZID (inhibition zone diameter): 6 mm
  E. coli IA% (activity index): 26.1%
WI-38 cells
  IC50: 84.8 ± 4.8 µM
HepG2 cells; HepG2, 24 h
  IC50: 53 ± 3.2 µM
HepG2 cells
  HepG2 TI (therapeutic index): 1.6
S. aureus [2]
  zone of inhibition at 20 µM: 7 mm

## O=C(O)C=CC(=O)Nc1ccc([Se]CC(=O)NOCc2ccccc2)cc1 [Compound 12, 4-((4-((2-((Benzyloxy)amino)-2-oxoethyl)selanyl)phenyl)amino)-4-oxobut-2-enoic Acid]
C. albicans
  zone of inhibition at 20 µM: 10 mm
  C. albicans IA% (activity index): 41.7%
MCF-7 cells
  IC50: 63 ± 3.8 µM
  MCF7 TI (therapeutic index): 0.6
S. aureus [1]
  S. aureus IA% (activity index): 23.8%
E. coli
  E. coli ZID (inhibition zone diameter): 4 mm
  E. coli IA% (activity index): 17.4%
WI-38 cells
  IC50: 36.5 ± 2.4 µM
HepG2 cells; HepG2, 24 h
  IC50: 72.9 ± 3.7 µM
HepG2 cells
  HepG2 TI (therapeutic index): 0.5
S. aureus [2]
  zone of inhibition at 20 µM: 5 mm

## O=C(C[Se]c1ccc(N=Nc2ccc(O)cc2)cc1)NOCc1ccccc1 [Compound 16, N-(benzyloxy)-2-((4-((4-hydroxyphenyl)diazenyl)phenyl)selanyl)acetamide]
C. albicans
  zone of inhibition at 20 µM: 16 mm
  C. albicans IA% (activity index): 66.7%
MCF-7 cells
  IC50: 33.7 ± 2.4 µM
  MCF7 TI (therapeutic index): 1.9
S. aureus [1]
  S. aureus IA% (activity index): 52.4%
E. coli
  E. coli ZID (inhibition zone diameter): 9 mm
  E. coli IA% (activity index): 39.1%
WI-38 cells
  IC50: 64.2 ± 3.9 µM
HepG2 cells; HepG2, 24 h
  IC50: 26.5 ± 2 µM
HepG2 cells
  HepG2 TI (therapeutic index): 2.4
S. aureus [2]
  zone of inhibition at 20 µM: 11 mm

## COc1cccc2c1C(=O)c1c(O)c3c(c(O)c1C2=O)C[C@@](O)(C(=O)CO)C[C@@H]3O[C@H]1C[C@H](N)[C@H](O)[C@H](C)O1 [Adriamycin, doxorubicin, reference compound]
HepG2 cells; MTT bioassay, HepG2 cells, 24 h incubation
  IC50: 4.5 ± 0.2 µM

## CC1(C)S[C@@H]2[C@H](NC(=O)[C@H](N)c3ccccc3)C(=O)N2[C@H]1C(=O)O [Ampicillin, ampicillin, reference compound]
S. aureus [1]
  S. aureus IA% (activity index): 100%
E. coli
  E. coli ZID (inhibition zone diameter): 23 mm
  E. coli IA% (activity index): 100%
S. aureus [2]
  zone of inhibition at 20 µM: 21 mm

## O=C(O)CCC(=O)Nc1ccc([Se]CC(=O)NOCc2ccccc2)cc1 [Compound 11, 4-((4-((2-((Benzyloxy)amino)-2-oxoethyl)selanyl)phenyl)amino)-4-oxobutanoic Acid]
C. albicans
  zone of inhibition at 20 µM: 13 mm
  C. albicans IA% (activity index): 54.2%
MCF-7 cells
  IC50: 35 ± 2.5 µM
  MCF7 TI (therapeutic index): 1.5
S. aureus [1]
  S. aureus IA% (activity index): 47.6%
E. coli
  E. coli ZID (inhibition zone diameter): 7 mm
  E. coli IA% (activity index): 30.4%
WI-38 cells
  IC50: 52.5 ± 3.2 µM
HepG2 cells; HepG2, 24 h
  IC50: 48.8 ± 2.8 µM
HepG2 cells
  HepG2 TI (therapeutic index): 1.1
S. aureus [2]
  zone of inhibition at 20 µM: 10 mm
